In ChEMBL document CHEMBL5726111, “Substituted pyridinone compounds as MEK inhibitors” (2017):

Target: Dual specificity mitogen-activated protein kinase kinase 1 (Homo sapiens, UniProt Q02750)
Experiment: LANCE Ultra Assay: The LANCE Ultra assay kit was purchased from PerkinElmer. The ULight-MBP peptide, Europium labeled Antibody and LANCE Detection buffer were purchased from PerkinElmer. The APT and dimethylsulfoxide were purchased from Sigma-Aldrich. The 5× Kinase buffer were purchased from Invitrogen. […] A Mek1 kinase assay (LANCE, PerkinElmer) was developed for supporting compound profiling and lead optimization. […] Then the phosphorylated Erk1 was able to phosphorylate ULight-MBP peptide (PerkinElmer). The phosphorylated peptide was detected by Europium-anti-phospho-MBP (PerkinElmer). […] After quenching the reaction with […], 2 nM Europium-anti-phospho-MBP was added to the reaction mixture and incubated for 60 min, followed by a detection using EnVision Multilabel Plate Reader (PerkinElmer).

Sequence of Dual specificity mitogen-activated protein kinase kinase 1 (Q02750 whole entry): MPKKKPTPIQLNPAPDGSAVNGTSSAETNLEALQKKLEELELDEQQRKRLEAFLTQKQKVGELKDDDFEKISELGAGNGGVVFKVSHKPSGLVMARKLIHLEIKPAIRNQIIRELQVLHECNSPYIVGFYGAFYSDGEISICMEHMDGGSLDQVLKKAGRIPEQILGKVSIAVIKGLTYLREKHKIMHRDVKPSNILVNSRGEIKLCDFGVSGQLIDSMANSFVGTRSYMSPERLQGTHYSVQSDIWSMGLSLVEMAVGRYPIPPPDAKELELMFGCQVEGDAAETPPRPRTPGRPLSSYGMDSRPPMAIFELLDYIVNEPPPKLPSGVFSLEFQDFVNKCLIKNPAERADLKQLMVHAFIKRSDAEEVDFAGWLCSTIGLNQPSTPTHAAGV

## Cn1c(Nc2ccc(I)cc2F)c(C(=O)NOCCO)c2c(c1=O)CC(C)(C)C2
  IC50: < 500 nM
